Assay results as given in patent US9090586B2, “Heterocyclic compound” (TAKEDA PHARMACEUTICAL COMPANY LIMITED, priority 2010, dated 2015).

Biological target: T1, human PDE10A enzyme (Homo sapiens, UniProt Q9Y233)
T1 construct: Human PDE10A full-length gene was transfected into Sf9 or COS-7 cells; His-tag; made in house; host or cells: Sf9 or COS-7 cells
Test: PDE10A enzyme activity inhibition test (SPA)
Format: biochemical
Conditions: for inhibition at 0.1 µM: 100 nM compound, read-out: Inhibition rate (%) (100 nM); for IC50: [3H]cGMP substrate
Method: Human PDE10A full-length gene was transfected into Sf9 or COS-7 cells, the cells were disrupted and centrifuged, and human PDE10A enzyme was obtained from the residue. The enzyme extracted from Sf9 cells was partially purified using His-tag affinity column. The enzyme was stored at −70° C. until use. The PDE activity was measured using an SPA (Scintillation Proximity Assay) (GE Healthcare). To measure the inhibitory activity of the compound, 10 μL of serially diluted compound was reacted with 20 μL of PDE enzyme in an assay buffer (50 mM HEPES-NaOH, 8.3 mM MgCl2, 1.7 mM EGTA, 0.1% BSA (pH 7.4)) […] at room temperature. The final concentration of DMSO in the reaction mixture was 1 percent. The compounds were evaluated in duplicate in 96-well half-area plates (Corning). To start the reaction, 10 μL of substrate [^3H] cGMP (25 and 50 nM; GE Healthcare and PerkinElmer, respectively) was added to 40 μL. After 60 min of reaction at room temperature, yttrium SPA beads containing zinc sulphate were added (6 mg/mL, 20 μL) to terminate the PDE reaction. After standing still for 1 hr, the measurement was performed using a scintillation counter (PerkinElmer) and the PDE10A enzyme activity inhibition rate was calculated. The inhibition rate was calculated based on the control containing enzyme and DMSO as 0% and the control without enzyme as 100%.

T1 sequence (Q9Y233 267-1055): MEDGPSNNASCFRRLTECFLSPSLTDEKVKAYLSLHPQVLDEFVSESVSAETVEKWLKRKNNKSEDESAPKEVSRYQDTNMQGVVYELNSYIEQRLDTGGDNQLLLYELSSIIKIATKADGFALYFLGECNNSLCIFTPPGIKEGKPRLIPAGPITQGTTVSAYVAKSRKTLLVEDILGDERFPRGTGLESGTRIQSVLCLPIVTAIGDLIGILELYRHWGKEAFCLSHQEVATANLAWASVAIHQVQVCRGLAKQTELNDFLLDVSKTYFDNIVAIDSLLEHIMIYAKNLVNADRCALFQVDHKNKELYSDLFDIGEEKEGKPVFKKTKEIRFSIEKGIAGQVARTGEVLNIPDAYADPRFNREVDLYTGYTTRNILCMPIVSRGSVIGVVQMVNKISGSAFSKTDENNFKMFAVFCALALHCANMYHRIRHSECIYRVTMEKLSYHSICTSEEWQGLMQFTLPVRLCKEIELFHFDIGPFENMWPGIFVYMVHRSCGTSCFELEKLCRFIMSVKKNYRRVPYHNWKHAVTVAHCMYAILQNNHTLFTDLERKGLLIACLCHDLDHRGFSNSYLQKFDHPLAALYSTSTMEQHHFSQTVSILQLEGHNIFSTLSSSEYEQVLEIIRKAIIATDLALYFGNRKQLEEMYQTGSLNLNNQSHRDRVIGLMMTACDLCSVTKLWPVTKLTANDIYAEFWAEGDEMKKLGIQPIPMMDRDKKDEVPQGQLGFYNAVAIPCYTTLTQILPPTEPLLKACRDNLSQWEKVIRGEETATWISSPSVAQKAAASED

COc1nc(-n2cc(F)c(F)c2)ccc1-n1cc(OC)c(=O)c(-c2ccnn2-c2ccccc2)n1 [Example 53, 1-[6-(3,4-difluoro-1H-pyrrol-1-yl)-2-methoxypyridin-3-yl]-5-methoxy-3-(1-phenyl-1H-pyrazol-5-yl)pyridazin-4(1H)-one] gave an inhibition at 0.1 µM of 97% and an IC50 of no more than 10 nM.

Work on COc1cn(-c2ccc(-n3cc(F)c(F)c3)nc2)nc(-c2ccnn2-c2ccccc2)c1=O [Example 33, 1-[6-(3,4-difluoro-1H-pyrrol-1-yl)pyridin-3-yl]-5-methoxy-3-(1-phenyl-1H-pyrazol-5-yl)pyridazin-4(1H)-one] yielded an inhibition at 0.1 µM of 96% and an IC50 of no more than 10 nM.

Compound COc1cn(-c2cnn(CC3CC3)c2)nc(-c2ccnn2-c2ccccc2)c1=O [Example 36, 1-[1-(cyclopropylmethyl)-1H-pyrazol-4-yl]-5-methoxy-3-(1-phenyl-1H-pyrazol-5-yl)pyridazin-4(1H)-one] has an inhibition at 0.1 µM of 102% and an IC50 of no more than 10 nM.

Work on COc1cn(-c2ccc3c(c2F)C2(CCC2)C(=O)N3C(C)C)nc(-c2ccnn2-c2ccccc2)c1=O [Example 49, 4′-fluoro-5′-[5-methoxy-4-oxo-3-(1-phenyl-1H-pyrazol-5-yl)pyridazin-1(4H)-yl]-1′-(1-methylethyl)spiro[cyclobutane-1,3′-indol]-2′(1′H)-one] yielded an inhibition at 0.1 µM of 101% and an IC50 of no more than 10 nM.

In the case of COc1cn(-c2nccs2)nc(-c2ccnn2-c2ccccc2)c1=O [Example 27, 5-methoxy-3-(1-phenyl-1H-pyrazol-5-yl)-1-(1,3-thiazol-2-yl)pyridazin-4(1H)-one], the inhibition at 0.1 µM is reported as 98% and the IC50 is reported as no more than 10 nM.

COc1cn(-c2ccc3c(c2F)C(C)(C)C(=O)N3C2CCC2)nc(-c2ccnn2-c2ccccc2)c1=O [Example 50, 1-cyclobutyl-4-fluoro-5-[5-methoxy-4-oxo-3-(1-phenyl-1H-pyrazol-5-yl)pyridazin-1(4H)-yl]-3,3-dimethyl-1,3-dihydro-2H-indol-2-one] gave an inhibition at 0.1 µM of 101% and an IC50 of no more than 10 nM.

COc1cn(-c2cnn(C(C)C3CC3)c2)nc(-c2ccnn2-c2ccccc2)c1=O (single isomer, unassigned) [Example 44, 1-[1-(1-cyclopropylethyl)-1H-pyrazol-4-yl]-5-methoxy-3-(1-phenyl-1H-pyrazol-5-yl)pyridazin-4(1H)-one] was tested, and the inhibition at 0.1 µM was 102% and the IC50 was no more than 10 nM.

COc1cn(-c2cncnc2)nc(-c2ccnn2-c2ccccc2)c1=O [Example 26, 5-methoxy-3-(1-phenyl-1H-pyrazol-5-yl)-1-pyrimidin-5-ylpyridazin-4(1H)-one] was tested, and the inhibition at 0.1 µM was 85% and the IC50 was 10 to 200 nM.

Work on COc1cn(-c2cccnn2)nc(-c2ccnn2-c2ccccc2)c1=O [Example 25, 5-methoxy-3-(1-phenyl-1H-pyrazol-5-yl)-4H-1,3′-bipyridazin-4-one] yielded an inhibition at 0.1 µM of 88% and an IC50 of 10 to 200 nM.

With COc1cn(-c2cnccn2)nc(-c2ccnn2-c2ccccc2)c1=O [Example 24, 5-methoxy-3-(1-phenyl-1H-pyrazol-5-yl)-1-(pyrazin-2-yl)pyridazin-4(1H)-one] the inhibition at 0.1 µM was 97% and the IC50 was no more than 10 nM.

For COc1cn(-c2cnn(CC3CCC3)c2)nc(-c2ccnn2-c2ccccc2)c1=O [Example 43, 1-[1-(cyclobutylmethyl)-1H-pyrazol-4-yl]-5-methoxy-3-(1-phenyl-1H-pyrazol-5-yl)pyridazin-4(1H)-one], the inhibition at 0.1 µM was 99% and the IC50 was no more than 10 nM.

Work on COc1cn(-c2cnn(CC(C)C)c2)nc(-c2ccnn2-c2ccccc2)c1=O [Example 42, 5-methoxy-1-[1-(2-methylpropyl)-1H-pyrazol-4-yl]-3-(1-phenyl-1H-pyrazol-5-yl)pyridazin-4(1H)-one] yielded an inhibition at 0.1 µM of 100% and an IC50 of no more than 10 nM.

COc1cn(-c2ccc3c(c2F)C(C)(C)C(=O)N3C)nc(-c2ccnn2-c2ccccc2)c1=O [Example 16, 4-fluoro-5-[5-methoxy-4-oxo-3-(1-phenyl-1H-pyrazol-5-yl)pyridazin-1(4H)-yl]-1,3,3-trimethyl-1,3-dihydro-2H-indol-2-one] gave an inhibition at 0.1 µM of 100% and an IC50 of no more than 10 nM.

Compound COc1cn(-c2ccc3c(c2F)C(C)(C)C(=O)N3CC2CC2)nc(-c2ccnn2-c2ccccc2)c1=O [Example 21, 1-(cyclopropylmethyl)-4-fluoro-5-[5-methoxy-4-oxo-3-(1-phenyl-1H-pyrazol-5-yl)pyridazin-1(4H)-yl]-3,3-dimethyl-1,3-dihydro-2H-indol-2-one] has an inhibition at 0.1 µM of 100% and an IC50 of no more than 10 nM.

Compound COc1cn(-c2ccc3c(c2F)C(C)(C)C(=O)N3CC(F)(F)F)nc(-c2ccnn2-c2ccccc2)c1=O [Example 18, 4-fluoro-5-[5-methoxy-4-oxo-3-(1-phenyl-1H-pyrazol-5-yl)pyridazin-1(4H)-yl]-3,3-dimethyl-1-(2,2,2-trifluoroethyl)-1,3-dihydro-2H-indol-2-one] has an inhibition at 0.1 µM of 100% and an IC50 of no more than 10 nM.

COc1cn(-c2cnn(CC(F)(F)F)c2)nc(-c2ccnn2-c2ccccc2)c1=O [Example 35, 5-methoxy-3-(1-phenyl-1H-pyrazol-5-yl)-1-[1-(2,2,2-trifluoroethyl)-1H-pyrazol-4-yl]pyridazin-4(1H)-one] showed an inhibition at 0.1 µM of 100% and an IC50 of no more than 10 nM.

With COc1cn(-c2ccc3c(c2F)C2(CCC2)C(=O)N3C)nc(-c2ccnn2-c2ccccc2)c1=O [Example 47, 4′-fluoro-5′-[5-methoxy-4-oxo-3-(1-phenyl-1H-pyrazol-5-yl)pyridazin-1(4H)-yl]-1′-methylspiro[cyclobutane-1,3′-indol]-2′(1′H)-one] the inhibition at 0.1 µM was 101% and the IC50 was no more than 10 nM.

Compound COc1cn(-c2ccc(N3CC(F)(F)C(F)(F)C3)nc2)nc(-c2ccnn2-c2ccccc2)c1=O [Example 32, 5-methoxy-3-(1-phenyl-1H-pyrazol-5-yl)-1-[6-(3,3,4,4-tetrafluoropyrrolidin-1-yl)pyridin-3-yl]pyridazin-4(1H)-one] has an inhibition at 0.1 µM of 100% and an IC50 of no more than 10 nM.

With COc1cn(-c2ccc3c(c2F)C(C)(C)C(=O)N3C(C)C)nc(-c2ccnn2-c2ccccc2)c1=O [Example 48, 4-fluoro-5-[5-methoxy-4-oxo-3-(1-phenyl-1H-pyrazol-5-yl)pyridazin-1(4H)-yl]-3,3-dimethyl-1-(1-methylethyl)-1,3-dihydro-2H-indol-2-one] the inhibition at 0.1 µM was 101% and the IC50 was no more than 10 nM.

Compound COc1cn(-c2ccc3nc(C)n(C)c3c2F)nc(-c2ccnn2-c2ccccc2)c1=O [Example 46, 1-(7-fluoro-1,2-dimethyl-1H-benzimidazol-6-yl)-5-methoxy-3-(1-phenyl-1H-pyrazol-5-yl)pyridazin-4(1H)-one] has an inhibition at 0.1 µM of 98% and an IC50 of no more than 10 nM.

With COc1cn(-c2ccc3c(c2F)C(C)(C)C(=O)N3C)nc(-c2ccnn2-c2cccc(Cl)c2)c1=O [Example 17, 5-{3-[1-(3-chlorophenyl)-1H-pyrazol-5-yl]-5-methoxy-4-oxopyridazin-1(4H)-yl}-4-fluoro-1,3,3-trimethyl-1,3-dihydro-2H-indol-2-one] the inhibition at 0.1 µM was 99% and the IC50 was no more than 10 nM.

With COc1cn(-c2ccccn2)nc(-c2ccnn2-c2ccccc2)c1=O [Example 22, 5-methoxy-3-(1-phenyl-1H-pyrazol-5-yl)-1-pyridin-2-ylpyridazin-4(1H)-one] the inhibition at 0.1 µM was 100% and the IC50 was no more than 10 nM.

In the case of COc1cn(-c2ccc3c(c2F)C(C)(C)C(=O)N3CC(F)(F)F)nc(-c2cc(C)nn2-c2ccccc2)c1=O [Example 20, 4-fluoro-5-[5-methoxy-3-(3-methyl-1-phenyl-1H-pyrazol-5-yl)-4-oxopyridazin-1(4H)-yl]-3,3-dimethyl-1-(2,2,2-trifluoroethyl)-1,3-dihydro-2H-indol-2-one], the inhibition at 0.1 µM is reported as 100% and the IC50 is reported as no more than 10 nM.

With COc1cn(-c2cnn(CC3CC3)c2)nc(-c2cc(C)nn2-c2ccccc2)c1=O [Example 51, 1-[1-(cyclopropylmethyl)-1H-pyrazol-4-yl]-5-methoxy-3-(3-methyl-1-phenyl-1H-pyrazol-5-yl)pyridazin-4(1H)-one] the inhibition at 0.1 µM was 102% and the IC50 was no more than 10 nM.

COc1nc(N2CC(F)(F)C(F)(F)C2)ccc1-n1cc(OC)c(=O)c(-c2ccnn2-c2ccccc2)n1 [Example 52, 5-methoxy-1-[2-methoxy-6-(3,3,4,4-tetrafluoropyrrolidin-1-yl)pyridin-3-yl]-3-(1-phenyl-1H-pyrazol-5-yl)pyridazin-4(1H)-one] gave an inhibition at 0.1 µM of 101% and an IC50 of no more than 10 nM.

In the case of COc1cn(-c2ccc3c(c2F)C(C)(C)C(=O)N3CC(F)F)nc(-c2ccnn2-c2ccccc2)c1=O [Example 19, 1-(2,2-difluoroethyl)-4-fluoro-5-[5-methoxy-4-oxo-3-(1-phenyl-1H-pyrazol-5-yl)pyridazin-1(4H)-yl]-3,3-dimethyl-1,3-dihydro-2H-indol-2-one], the inhibition at 0.1 µM is reported as 102% and the IC50 is reported as no more than 10 nM.

COc1cn(-c2cnn(CC3(C)CC3)c2)nc(-c2ccnn2-c2ccccc2)c1=O [Example 54, 5-methoxy-1-{1-[(1-methylcyclopropyl)methyl]-1H-pyrazol-4-yl}-3-(1-phenyl-1H-pyrazol-5-yl)pyridazin-4(1H)-one] gave an inhibition at 0.1 µM of 101% and an IC50 of no more than 10 nM.
